Among the data in patent US11427548B2 (Arvinas Operations, Inc., priority 2015, dated 2022) are DC50 and Dmax values, retold here.

As a reminder, the DC50 is the concentration giving 50% degradation. Low readings indicate degradation at low concentration, high ones degradation only at high concentration. What is called Dmax is the largest share of the target that was removed. Lower therefore signals a partial loss of target.

This assay deals with T1, Androgen Receptor (Homo sapiens, UniProt P10275+P40337, T878A).
T1 construct: Compounds have been evaluated in this assay in LNCaP and/or VCaP cells utilizing similar protocols; endogenous in cells; host or cells: LNCaP cells
T1 sequence (P10275 whole entry T878A): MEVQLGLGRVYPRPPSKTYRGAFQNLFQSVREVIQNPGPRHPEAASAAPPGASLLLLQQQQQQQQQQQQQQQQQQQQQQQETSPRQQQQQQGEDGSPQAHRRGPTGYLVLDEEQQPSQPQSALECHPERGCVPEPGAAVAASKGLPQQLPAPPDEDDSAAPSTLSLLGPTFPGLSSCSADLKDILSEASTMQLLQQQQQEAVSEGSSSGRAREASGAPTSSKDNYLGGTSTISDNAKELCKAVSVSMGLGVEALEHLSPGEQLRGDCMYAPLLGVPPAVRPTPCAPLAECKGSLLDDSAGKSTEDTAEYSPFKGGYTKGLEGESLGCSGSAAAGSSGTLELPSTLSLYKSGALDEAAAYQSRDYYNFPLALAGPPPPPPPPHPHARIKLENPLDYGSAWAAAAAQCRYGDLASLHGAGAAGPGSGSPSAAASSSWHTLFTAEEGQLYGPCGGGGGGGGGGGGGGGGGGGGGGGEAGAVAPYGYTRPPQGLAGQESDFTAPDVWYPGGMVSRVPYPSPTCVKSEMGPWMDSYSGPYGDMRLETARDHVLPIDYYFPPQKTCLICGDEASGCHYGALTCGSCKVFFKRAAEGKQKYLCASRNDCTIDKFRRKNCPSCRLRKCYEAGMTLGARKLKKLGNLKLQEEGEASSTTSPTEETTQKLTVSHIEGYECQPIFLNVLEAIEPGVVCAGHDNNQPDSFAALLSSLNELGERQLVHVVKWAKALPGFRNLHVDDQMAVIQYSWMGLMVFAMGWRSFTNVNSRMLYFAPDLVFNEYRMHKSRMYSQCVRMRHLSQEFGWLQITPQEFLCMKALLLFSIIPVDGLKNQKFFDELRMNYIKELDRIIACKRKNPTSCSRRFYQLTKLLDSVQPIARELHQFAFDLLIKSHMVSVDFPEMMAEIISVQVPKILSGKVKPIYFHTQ
T1 sequence (P40337 whole entry): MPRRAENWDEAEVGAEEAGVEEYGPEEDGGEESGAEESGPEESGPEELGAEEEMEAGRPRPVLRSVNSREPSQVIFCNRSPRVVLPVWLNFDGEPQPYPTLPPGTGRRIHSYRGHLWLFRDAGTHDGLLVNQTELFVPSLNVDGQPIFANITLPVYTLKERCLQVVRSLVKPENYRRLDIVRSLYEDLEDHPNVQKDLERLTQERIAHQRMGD
T1 sequence (Q15369 whole entry partner): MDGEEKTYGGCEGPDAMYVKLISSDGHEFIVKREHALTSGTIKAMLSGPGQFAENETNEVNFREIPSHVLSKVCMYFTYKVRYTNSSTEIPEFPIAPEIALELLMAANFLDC
T1 sequence (Q15370 whole entry partner): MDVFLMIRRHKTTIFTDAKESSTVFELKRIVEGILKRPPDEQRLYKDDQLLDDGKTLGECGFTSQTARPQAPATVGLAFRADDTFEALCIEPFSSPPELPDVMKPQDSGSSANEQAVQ
In words: Androgen Receptor ELISA assay (PathScan AR ELISA) in LNCaP cells: AR degradation, Dmax and DC50. The assay is classed as cell-based. The settings on record: for DC50: concentration that caused 50% Androgen Receptor degradation; for Dmax: highest percentage of Androgen Receptor degradation observed. A general note: An ELISA detects its analyte on a solid surface through an enzyme-linked reagent.

In the case of `Cc1ncsc1-c1ccc(CNC(=O)[C@@H]2C[C@@H](O)CN2C(=O)[C@@H](NC(=O)COCCCOCCCCCOc2ccc(N3C(=S)N(c4ccc(C#N)c(C(F)(F)F)c4)C(=O)C3(C)C)cc2F)C(C)(C)C)cc1` [Example 3, (2S,4R)-1-[(2S)-2-[2-(3-{[5-(4-{3-[4-cyano-3-(trifluoromethyl)phenyl]-5,5-dimethyl-4-oxo-2-sulfanylideneimidazolidin-1-yl}-2-fluorophenoxy)pentyl]oxy}propoxy)acetamido]-3,3-dimethylbutanoyl]-4-hydroxy-N-{[4-(4-methyl-1,3-thiazol-5-yl)phenyl]methyl}pyrrolidine-2-carboxamide], the DC50 is under 50 nM and the Dmax was over 71%.
The matching figures for `Cc1ncsc1-c1ccc(CNC(=O)[C@@H]2C[C@@H](O)CN2C(=O)[C@@H](NC(=O)COCCCOCCCCCOc2ccc(N3C(=S)N(c4ccc([N+](=O)[O-])c(C(F)(F)F)c4)C(=O)C3(C)C)cc2)C(C)(C)C)cc1` [Example 5, (2S,4R)-1-[(2S)-2-[2-(3-{[5-(4-{5,5-dimethyl-3-[4-nitro-3-(trifluoromethyl)phenyl]-4-oxo-2-sulfanylideneimidazolidin-1-yl}phenoxy)pentyl]oxy}propoxy)acetamido]-3,3-dimethylbutanoyl]-4-hydroxy-N-{[4-(4-methyl-1,3-thiazol-5-yl)phenyl]methyl}pyrrolidine-2-carboxamide]: 51 to 500 nM and over 71%.
`Cc1cc(N2C(=O)C(C)(C)N(c3ccc(OCCCCCOCCCOCC(=O)N[C@H](C(=O)N4C[C@H](O)C[C@H]4C(=O)NCc4ccc(-c5scnc5C)cc4)C(C)(C)C)cc3)C2=S)ccc1C#N` [Example 6, (2S,4R)-1-[(2S)-2-(2-{3-[(5-{4-[3-(4-cyano-3-methylphenyl)-5,5-dimethyl-4-oxo-2-sulfanylideneimidazolidin-1-yl]phenoxy}pentyl)oxy]propoxy}acetamido)-3,3-dimethylbutanoyl]-4-hydroxy-N-{[4-(4-methyl-1,3-diiazol-5-yl)phenyl]methyl}pyrrolidine-2-carboxamid] had a DC50 of under 50 nM and a Dmax of over 71%.
In the case of `Cc1ncsc1-c1ccc(CNC(=O)[C@@H]2C[C@@H](O)CN2C(=O)[C@@H](NC(=O)COCCCOCCCCCOc2ccc(N3C(=S)N(c4ccc(C#N)c(F)c4)C(=O)C3(C)C)cc2)C(C)(C)C)cc1` [Example 7], the DC50 is under 50 nM and the greatest degradation seen (Dmax) is 51 to 70%.
The matching figures for `COc1cc(N2C(=O)C(C)(C)N(c3ccc(OCCCCCOCCCOCC(=O)N[C@H](C(=O)N4C[C@H](O)C[C@H]4C(=O)NCc4ccc(-c5scnc5C)cc4)C(C)(C)C)cc3)C2=S)ccc1C#N` [Example 9, (2S,4R)-1-[(2S)-2-(2-{3-[(5-{4-[3-(4-cyano-3-methoxyphenyl)-5,5-dimethyl-4-oxo-2-sulfanylideneimidazolidin-1-yl]phenoxy}pentyl)oxy]propoxy}acetamido)-3,3-dimethylbutanoyl]-4-hydroxy-N-{[4-(4-methyl-1,3-thiazol-5-yl)phenyl]methyl}pyrrolidine-2-carboxamide]: under 50 nM and over 71%.
The matching figures for `Cc1ncsc1-c1ccc(CNC(=O)[C@@H]2C[C@@H](O)CN2C(=O)[C@@H](NC(=O)COCCOCCOCCOc2ccc(N3C(=O)N(c4ccc(C#N)c(C(F)(F)F)c4)C(=O)C3(C)C)cc2)C(C)(C)C)cc1` [Example 17, (2S,4R)-1-[(2S)-2-[2-(2-{2-[2-(4-{3-[4-cyano-3-(trifluoromethyl)phenyl]-5,5-dimethyl-2,4-dioxoimidazolidin-1-yl}phenoxy)ethoxy]ethoxy}ethoxy)acetamido]-3,3-dimethylbutanoyl]-4-hydroxy-N-{[4-(4-methyl-1,3-thiazol-5-yl)phenyl]methyl}pyrrolidine-2-carboxamide]: 51 to 500 nM and 26 to 50%.
`Cc1ncsc1-c1ccc(CNC(=O)[C@@H]2C[C@@H](O)CN2C(=O)[C@@H](NC(=O)COCCOCCOCCOc2ccc(N3C(=S)N(c4ccc(C#N)c(C(F)(F)F)c4)C(=O)C3(C)C)cc2F)C(C)(C)C)cc1` [Example 18, (2S,4R)-1-[(2S)-2-[2-(2-{2-[2-(4-{3-[4-cyano-3-(trifluoromethyl)phenyl]-5,5-dimethyl-4-oxo-2-sulfanylideneimidazolidin-1-yl}-2-fluorophenoxy)ethoxy]ethoxy}ethoxy)acetamido]-3,3-dimethylbutanoyl]-4-hydroxy-N-{[4-(4-methyl-1,3-thiazol-5-yl)phenyl]methyl}pyrrolidine-2-carboxamide] registered a DC50 of 51 to 500 nM and a Dmax of 51 to 70%.
As to `Cc1ncsc1-c1ccc(CNC(=O)[C@@H]2C[C@@H](O)CN2C(=O)[C@@H](NC(=O)COCCOCCOCCOc2ccc(N3C(=S)N(c4ccc([N+](=O)[O-])c(C(F)(F)F)c4)C(=O)C3(C)C)cc2)C(C)(C)C)cc1` [Example 19, (2S,4R)-1-[(2S)-2-[2-(2-{2-[2-(4-{5,5-dimethyl-3-[4-nitro-3-(trifluoromethyl)phenyl]-4-oxo-2-sulfanylideneimidazolidin-1-yl}phenoxy)ethoxy]ethoxy}ethoxy)acetamido]-3,3-dimethylbutanoyl]-4-hydroxy-N-{[4-(4-methyl-1,3-thiazol-5-yl)phenyl]methyl}pyrrolidine-2-carboxamide], the DC50 was under 50 nM and the maximal degradation (Dmax) was in the range of 51 to 70%.
As for `Cc1ncsc1-c1ccc([C@H](C)NC(=O)[C@@H]2C[C@@H](O)CN2C(=O)[C@@H](NC(=O)COCCOCCOCCOc2ccc(N3C(=S)N(c4ccc(C#N)c(C(F)(F)F)c4)C(=O)C3(C)C)cc2)C(C)(C)C)cc1` [Example 20, (2S,4R)-1-[(2S)-2-[2-(2-{2-[2-(4-{3-[4-cyano-3-(trifluoromethyl)phenyl]-5,5-dimethyl-4-oxo-2-sulfanylideneimidazolidin-1-yl}phenoxy)ethoxy]ethoxy}ethoxy)acetamido]-3,3-dimethylbutanoyl]-4-hydroxy-N-[(1S)-1-[4-(4-methyl-1,3-thiazol-5-yl)phenyl]ethyl]pyrrolidine-2-carboxamide], the DC50 was 51 to 500 nM and the maximal degradation (Dmax) is over 71%.
Molecule `Cc1ncsc1-c1ccc(CNC(=O)[C@@H]2C[C@@H](O)CN2C(=O)[C@@H](NC(=O)COCCOCCOCCOc2ccc(N3C(=S)N(c4cnc(C#N)c(C(F)(F)F)c4)C(=O)C3(C)C)cc2)C(C)(C)C)cc1` [Example 21, (2S,4R)-1-[(2S)-2-[2-(2-{2-[2-(4-{3-[6-cyano-5-(trifluoromethyl)pyridin-3-yl]-5,5-dimethyl-4-oxo-2-sulfanylideneimidazolidin-1-yl}phenoxy)ethoxy]ethoxy}ethoxy)acetamido]-3,3-dimethylbutanoyl]-4-hydroxy-N-{[4-(4-methyl-1,3-thiazol-5-yl)phenyl]methyl}pyrrolidine-2-carboxamide] showed a maximal degradation (Dmax) of 26 to 50%.
`Cc1ncsc1-c1ccc(CNC(=O)[C@@H]2C[C@@H](O)CN2C(=O)[C@@H](NC(=O)COCCO[C@H](C)[C@@H](C)OCCOc2ccc(N3C(=S)N(c4ccc(C#N)c(C(F)(F)F)c4)C(=O)C3(C)C)cc2)C(C)(C)C)cc1` [Example 23, (2S,4R)-1-[(2S)-2-[2-(2-{[(2R,3R)-3-[2-(4-{3-[4-cyano-3-(trifluoromethyl)phenyl]-5,5-dimethyl-4-oxo-2-sulfanylideneimidazolidin-1-yl}phenoxy)ethoxy]butan-2-yl]oxy}ethoxy)acetamido]-3,3-dimethylbutanoyl]-4-hydroxy-N-{[4-(4-methyl-1,3-thiazol-5-yl)phenyl]methyl}pyrrolidine-2-carboxamide]: the DC50 lay within 51 to 500 nM and the Dmax is over 71%.
